US10189809B2, “SGC stimulators” (Ironwood Pharmaceuticals, Inc., priority 2010, dated 2019)

Key:
[1] = target: T1, soluble guanylate cyclase (sGC) (Homo sapiens (Human), UniProt Q02108+Q02153); test: sGC-HEK-cGMP assay run in the absence of SNP (HEK WC assay); type: cell-based; settings: no SNP, increase in the sGC receptor activity; for HEK WC Assay (fold increase at 10 μM): compound at 10 μM; for HEK WC Assay (fold increase at 30 μM): compound at 30 μM
Outline: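 HEK293 cells with endogenous sGC, preincubated 15 min at 37° C with 0.5 mM IBMX, then exposed to test compound 10 min at 37° C without SNP. Cells lysed in 0.1 M HCl; cGMP quantified by LC/MS against a standard curve. EC50 from concentration-response curves.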

[2] = target: T1, soluble guanylate cyclase (sGC); test: sGC-HEK-cGMP assay run with SNP incubation (HEK WC assay); type: cell-based; settings: for Emax at 10 µM: read-out: HEK WC Assay (% Emax at 10 uM/with 10 uM SNP); for Emax at 30 µM: read-out: HEK WC Assay (% Emax at 30 uM/with 10 uM SNP)
Outline: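 HEK293 cells with endogenous sGC were pretreated with 0.5 mM IBMX for 15 min at 37 °C, then exposed to test compound plus sodium nitroprusside for 10 min at 37 °C.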

[3] = target: T2, Human soluble guanylate cyclase enzyme (hsGC) (Homo sapiens (Human), UniProt Q02108+Q02153); test: Purified human sGC enzyme activity assay; type: biochemical; settings: for sGC Enzyme (specific activity at 10 μM) / sGC Enzyme (fold increase at 10 μM without SNP): 10 μM compound
T2 sequence (Q02153 whole entry): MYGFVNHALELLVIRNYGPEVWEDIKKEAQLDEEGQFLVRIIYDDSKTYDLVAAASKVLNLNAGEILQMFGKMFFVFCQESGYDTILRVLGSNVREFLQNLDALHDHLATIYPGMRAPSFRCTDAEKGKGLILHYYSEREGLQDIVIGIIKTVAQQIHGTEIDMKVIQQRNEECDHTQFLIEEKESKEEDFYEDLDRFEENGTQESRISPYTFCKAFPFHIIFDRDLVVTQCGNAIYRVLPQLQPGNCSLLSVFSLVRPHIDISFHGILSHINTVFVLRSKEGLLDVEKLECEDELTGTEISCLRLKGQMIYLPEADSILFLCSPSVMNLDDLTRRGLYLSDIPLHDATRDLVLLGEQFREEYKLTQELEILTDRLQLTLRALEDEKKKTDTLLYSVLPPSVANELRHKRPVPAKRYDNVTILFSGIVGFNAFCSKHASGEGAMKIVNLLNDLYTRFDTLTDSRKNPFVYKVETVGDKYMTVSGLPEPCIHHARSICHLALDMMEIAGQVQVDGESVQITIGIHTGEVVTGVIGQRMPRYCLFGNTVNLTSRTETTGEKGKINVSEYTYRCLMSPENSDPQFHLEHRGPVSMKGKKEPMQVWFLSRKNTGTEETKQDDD
T2 sequence (Q02108 whole entry): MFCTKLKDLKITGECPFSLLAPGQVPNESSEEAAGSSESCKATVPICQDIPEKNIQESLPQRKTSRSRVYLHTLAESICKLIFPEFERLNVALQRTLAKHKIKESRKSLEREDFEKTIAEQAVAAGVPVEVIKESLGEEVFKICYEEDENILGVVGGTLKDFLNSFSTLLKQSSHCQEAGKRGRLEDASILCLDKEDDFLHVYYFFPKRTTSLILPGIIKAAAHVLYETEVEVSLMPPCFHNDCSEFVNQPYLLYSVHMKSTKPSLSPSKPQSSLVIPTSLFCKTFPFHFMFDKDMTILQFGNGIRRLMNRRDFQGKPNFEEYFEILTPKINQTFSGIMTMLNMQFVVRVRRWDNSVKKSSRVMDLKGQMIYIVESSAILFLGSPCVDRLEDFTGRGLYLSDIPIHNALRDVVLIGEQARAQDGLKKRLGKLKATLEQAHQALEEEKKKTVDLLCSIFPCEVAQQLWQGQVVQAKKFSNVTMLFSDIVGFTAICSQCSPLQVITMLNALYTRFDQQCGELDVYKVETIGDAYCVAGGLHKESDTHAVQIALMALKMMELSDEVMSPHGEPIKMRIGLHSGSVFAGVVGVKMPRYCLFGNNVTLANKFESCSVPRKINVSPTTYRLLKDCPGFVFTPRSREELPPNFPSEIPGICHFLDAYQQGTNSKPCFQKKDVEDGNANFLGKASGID
Outline: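 Purified human sGC (5 ng) incubated 30 min at 37° C with compound at 10 or 30 μM final in pH 8.0 Tris with 300 μM GTP, 2 mM MgCl2, 2 mM DTT and 1 mM IBMX, then stopped with cold methanol. cGMP quantified against a standard curve. Specific activity (nmol cGMP/mg sGC/min) expressed as fold-change over DMSO control.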

[4] = target: T2, Human soluble guanylate cyclase enzyme (hsGC); test: Purified human sGC enzyme synergy assay in the presence of 1 μM sodium nitroprusside (SNP); type: biochemical; settings: with 1 μM SNP; for sGC Enzyme (fold increase at 10 μM with SNP): 10 μM compound; for sGC Enzyme (fold increase at 30 μM with SNP): 30 μM compound
Outline: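 Purified human sGC (5 ng) incubated 30 min at 37 °C with compounds at 10 or 30 μM, 1 μM sodium nitroprusside, 300 μM GTP and 1 mM IBMX in Tris pH 8.0 with MgCl2/DTT. cGMP quantified against a standard curve, and specific activity expressed as fold-change over DMSO control.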

Thoracic aortic rings = Thoracic aortic rings assay (Example 19a; IBMX as 100% inhibition); settings: compound at 10 μM; rat thoracic aortic rings contracted with 100 ng/mL phenylephrine; read-out: Percent Relaxation at 10 μM
Experimental: Thoracic aortic rings were dissected from anesthetized (isoflurane) male Sprague-Dawley rats weighing 275-299 g. Tissues were immediately transferred to ice-cold Krebs-Henseleit solution, which had been aerated with 95% O2 and 5% CO2 for 30 minutes. Following removal of connective tissue, aortic sections were cut into 4 rings (˜2 mm each) and suspended on 2 L-shaped hooks, with one hook fixed at the bottom of the tissue bath (Schuler Organ Bath, Harvard Apparatus) and the other connected to a force transducer (F30 Force Transducer, Harvard Apparatus). Baths contained Krebs Henseleit solution (10 mL) heated to 37° C. and aerated with 95% O2 and 5% CO2. Rings were brought to an initial tension of 0.3-0.5 g and gradually raised to a resting tension of 1.0 g over 60 minutes. Rings were rinsed with Krebs Henseleit solution (heated to 37° C. and aerated with 95% O2 and 5% CO2) at 15 minute intervals until a stable baseline was obtained. Rings were considered to be stable after a resting tension of 1.0 g was maintained (for approximately 10 minutes) without need for adjustment. Rings were then contracted with 100 ng/mL phenylephrine by adding 100 uL of a 10 μg/mL phenylephrine stock solution. Tissues achieving a stable contraction were then treated in a cumulative, dose dependent manner with test compounds prepared in dimethylsulfoxide (DMSO). In some cases, tissues were rinsed three times over a 5 minute period with Krebs-Heinseleit's solution (heated to 37° C. and aerated with 95% O2 and 5% CO2), allowed to stabilize at baseline, and then used for characterization of other test articles or DMSO effects. All data were collected using the HSE-ACAD software provided by Harvard Apparatus. […] EC50 values were calculated from concentration-response curves generated with GraphPad Prism Software.

T1 sequence (Q02153 whole entry): as the sequence (Q02153 whole entry) above
T1 sequence (Q02108 whole entry): as the sequence (Q02108 whole entry) above

| SMILES | HEK WC Assay (fold increase at 10 μM) [1] | HEK WC Assay (fold increase at 30 μM) [1] | Emax at 10 µM [2] [%] | Emax at 30 µM [2] [%] | sGC Enzyme (specific activity at 10 μM) [3] | sGC Enzyme (fold increase at 10 μM without SNP) [3] | sGC Enzyme (specific activity at 30 μM) ([3]; 30 μM compound) | sGC Enzyme (fold increase at 30 μM without SNP) ([3]; 30 μM compound) | sGC Enzyme (fold increase at 10 μM with SNP) [4] | sGC Enzyme (fold increase at 30 μM with SNP) [4] | inhibition at 10 µM (Thoracic aortic rings) [%] |
| --- | --- | --- | --- | --- | --- | --- | --- | --- | --- | --- | --- |
| COc1cccc(-c2cc(-c3ncccn3)nn2Cc2ccccc2F)n1 [Compound I-6] | B (B = 1 to <2 fold increase) | C (C = 2 to <5 fold increase) | 20 to 40 | 20 to 40 | D (D = 200 to <500) | B (B = 2 to <5 fold increase) | D (D = 200 to <500) | B (B = 2 to <5 fold increase) | B (B = 2 to <5 fold increase) | D (D = equal or >10 fold increase) | 102 |
| N#Cc1cc(-c2ccccn2)nn1Cc1ccccc1F [Compound I-3] | A (A = no increase to <1 fold increase) | D (D = 5 to <10 fold increase) | 20 to 40 | 40 to 60 | D (D = 200 to <500) | B (B = 2 to <5 fold increase) |  | C (C = 5 to <10 fold increase) | C (C = 5 to <10 fold increase) | C (C = 5 to <10 fold increase) | 92 |
